Measured values published in PMC7153278, “Discovery of Membrane-Bound Pyrophosphatase Inhibitors Derived from an Isoxazole Fragment” (ACS Medicinal Chemistry Letters, 2020).

Legend:
[1] = target: Thermotoga maritima mPPase (TmPPase) (Thermotoga maritima, UniProt Q9S5X0); test: TmPPase inhibition assay (96-well plate, orthophosphate determination); type: biochemical; conditions: computed using the pIC50 and the Heavy Atom Count (LEHA) normalization method, Discovery Studio
Protocol: The inhibition assay was measured in 96 well plate assay as previously reported.5,6 Briefly, 1 µL of purified TmPPase (13 mg/mL) was reactivated in 99 µL of reactivation buffer (20 mM 2-(N-morpholino) ethanesulfonic acid (MES) pH 6.5, 3.5% (v/v) glycerol, 2 mM dithiothreitol (DTT), 4.5% dodecyl maltoside (DDM) and 12 mg/mL L-α-phosphatidylcholine from soybean) and incubated at 55 °C for 15 min. For the assay, to each tube strips, 0.2 µL of the reactivated enzyme was added to 14.8 µL of reaction buffer (200 mM Tris-Cl pH 8.0, 8.0 mM MgCl2, 333 mM KCl, and 67 mM NaCl) and 25 µL of inhibitor. The reaction mixtures were sealed with an adhesive sealing sheet (Thermo Scientific) and incubated at 71 °C for 5 min. The reactions were started with the addition of 10 µL of 2 mM sodium pyrophosphate, further incubation at 71 °C for 5 min and stopped by placing the reaction mixtures on ice for 10 min. The color development was done with the addition of ammonium heptamolybdate + ascorbic acid solution on ice for 10 min and then 90 µL of arsenic solution, at room temperature, for a minimum of 30 min. 180 µL of each reaction mixtures was then transferred into a clear 96 well polystyrene microplate and the absorbance was measured at 860 nm using a microplate spectrophotometer (MultiSkan Go, Thermo Scientific). The pilot inhibitor screening of 16 phosphate-mimicking fragments was done at 100 μM inhibitor concentration. Further screening was done with three different concentrations; 1 μM, 5 μM and 50 μM for soluble compounds, and 1 μM, 5 μM, and 20 μM for sparingly soluble compounds.6 The best hits were validated using 8 concentrations in triplicate in TmPPase.
The potent hits 12k and 12l compounds were then tested on the P. falciparum (PfPPase-VP1) membrane fractions expressed in baculovirus-infected insect cells (the expression method and further enzyme analysis will be described in more detail elsewhere). Briefly, to each tube strips, 2.4 µL of PfPPase-VP1 membrane fraction (5 mg/mL) was added into 12.6 µL of reaction buffer (200 mM Tris-Cl pH 8.0, 8.0 mM MgCl2, 333 mM KCl, 67 mM NaCl, 3.3 mM NaF, and 17 μM Gramicidin D) and 25 µL of inhibitor. The reaction mixtures were incubated at 30 °C for 5 min and the assay was started by the addition of 10 µL of 2 mM sodium pyrophosphate and further incubation at 30 °C for 10 min. The reaction termination and color development were done as before.
The in vitro anti-plasmodial activity assay strain 3D7 was maintained in culture as described previously.7 Briefly, parasites were cultured in O+ human erythrocytes at 5% haematocrit in RPMI - 1640 medium supplemented with 0.5% Albumax II (Gibco, Carlsbad, CA, USA), 200 μM hypoxanthine (Sigma, St. Louis, MO, USA) and 20 μg/mL gentamycin (Gibco). Parasites were synchronized with the sorbitol method as described. 8 Test compound was dissolved in DMSO to make a stock solution of 10 mM. Two -fold serial dilutions of the test compound were made in the culture medium to cover the range of 400 µM – 400 nM. Fifty microliters of each dilution were mixed in 96 well plate with 150 µL of 2% haematocrit of 0.5% parasitemia (ring stage). DMSO concentration in the highest compound concentration w as 0.1%. After 72 h incubation at 37 °C, the parasite growth was quantified using fluorescent SYBR Green I ® -based assay as described. 9 The half-maximal inhibitory concentration (IC 50) of the test compound was assessed using the non-linear regression fit model in Prism 7 (GraphPad Software). The potent anti-malarial drug, artemisinin, was use in parallel as a positive control. Each concentration of the test compound was tested in duplicate and the assay was repeated three times. The mean and standard deviation of the three repeats were used to estimate the IC50.
IC50 determinations were done using R 3.6.110 and the n-parameter logistic regression (nplr) package11 version 0.1-7. In this package, the weighted nplr, given x (compound concentrations) and […]

[2] = target: P. falciparum vacuolar H+-translocating pyrophosphatase (PfPPase-VP1) (Plasmodium falciparum, UniProt Q8IKR1); test: PfPPase-VP1 inhibition assay on membrane fractions from baculovirus-infected insect cells; type: biochemical; conditions: PfPPase-VP1 in the membrane
Chain of P. falciparum vacuolar H+-translocating pyrophosphatase (PfPPase-VP1) (Q8IKR1 entry or part of it): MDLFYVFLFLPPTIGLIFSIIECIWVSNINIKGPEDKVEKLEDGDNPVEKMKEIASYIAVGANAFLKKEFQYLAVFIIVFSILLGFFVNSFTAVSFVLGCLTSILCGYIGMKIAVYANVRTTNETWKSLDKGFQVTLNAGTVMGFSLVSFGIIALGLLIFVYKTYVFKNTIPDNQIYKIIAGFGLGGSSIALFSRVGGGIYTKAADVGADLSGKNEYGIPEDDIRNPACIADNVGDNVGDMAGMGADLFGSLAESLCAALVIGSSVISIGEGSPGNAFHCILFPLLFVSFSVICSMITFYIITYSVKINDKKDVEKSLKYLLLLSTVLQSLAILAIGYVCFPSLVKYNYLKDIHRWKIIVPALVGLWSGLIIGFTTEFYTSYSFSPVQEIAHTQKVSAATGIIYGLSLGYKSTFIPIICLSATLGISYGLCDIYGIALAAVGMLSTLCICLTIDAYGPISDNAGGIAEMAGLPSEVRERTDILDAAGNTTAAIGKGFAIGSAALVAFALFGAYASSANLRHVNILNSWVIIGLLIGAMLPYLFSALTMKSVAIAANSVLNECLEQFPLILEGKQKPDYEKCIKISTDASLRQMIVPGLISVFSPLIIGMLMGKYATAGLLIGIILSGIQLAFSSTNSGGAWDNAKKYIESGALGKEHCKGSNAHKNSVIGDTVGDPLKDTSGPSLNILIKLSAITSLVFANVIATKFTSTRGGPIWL
Protocol: We then addressed the potential of 12k and 12l for translation to pathogenic proteins. These analogues differ by replacement of two methyl groups by two tert-butyl groups. In order to do so, we expressed the PfPPase-VP1 gene (PF3D7_1456800) in baculovirus-infected insect cells and performed the inhibition assay on the PfPPase-VP1 in the membrane (the method and further analysis will be described in more detail elsewhere).
The inhibition assay was measured in 96 well plate assay as previously reported.5,6 Briefly, 1 µL of purified TmPPase (13 mg/mL) was reactivated in 99 µL of reactivation buffer (20 mM 2-(N-morpholino) ethanesulfonic acid (MES) pH 6.5, 3.5% (v/v) glycerol, 2 mM dithiothreitol (DTT), 4.5% dodecyl maltoside (DDM) and 12 mg/mL L-α-phosphatidylcholine from soybean) and incubated at 55 °C for 15 min. For the assay, to each tube strips, 0.2 µL of the reactivated enzyme was added to 14.8 µL of reaction buffer (200 mM Tris-Cl pH 8.0, 8.0 mM MgCl2, 333 mM KCl, and 67 mM NaCl) and 25 µL of inhibitor. The reaction mixtures were sealed with an adhesive sealing sheet (Thermo Scientific) and incubated at 71 °C for 5 min. […] 180 µL of each reaction mixtures was then transferred into a clear 96 well polystyrene microplate and the absorbance was measured at 860 nm using a microplate spectrophotometer (MultiSkan Go, Thermo Scientific). […]

Chain of Thermotoga maritima mPPase (TmPPase) (Q9S5X0 whole entry): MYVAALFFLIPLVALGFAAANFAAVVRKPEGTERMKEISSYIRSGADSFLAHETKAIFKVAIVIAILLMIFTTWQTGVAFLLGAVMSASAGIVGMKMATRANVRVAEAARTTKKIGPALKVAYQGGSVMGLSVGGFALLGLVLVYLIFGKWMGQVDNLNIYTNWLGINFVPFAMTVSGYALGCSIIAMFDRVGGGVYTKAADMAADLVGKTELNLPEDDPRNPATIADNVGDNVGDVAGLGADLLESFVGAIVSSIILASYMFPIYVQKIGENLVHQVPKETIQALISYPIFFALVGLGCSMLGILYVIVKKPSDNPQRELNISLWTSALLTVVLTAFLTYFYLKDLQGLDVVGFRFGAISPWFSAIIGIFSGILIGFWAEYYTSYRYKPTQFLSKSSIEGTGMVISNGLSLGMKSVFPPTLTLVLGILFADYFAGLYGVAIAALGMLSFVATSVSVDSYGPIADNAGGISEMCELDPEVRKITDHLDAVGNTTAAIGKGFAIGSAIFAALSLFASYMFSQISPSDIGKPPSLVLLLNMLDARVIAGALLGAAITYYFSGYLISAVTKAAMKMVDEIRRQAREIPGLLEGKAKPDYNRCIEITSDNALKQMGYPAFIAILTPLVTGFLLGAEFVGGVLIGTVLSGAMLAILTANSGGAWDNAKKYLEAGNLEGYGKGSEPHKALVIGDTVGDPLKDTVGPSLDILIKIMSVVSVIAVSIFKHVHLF

Compound: CC(C)(C)c1cc(-c2cc(C(=O)Oc3ccccc3Br)no2)cc(C(C)(C)C)c1 [Compound 12l]
- LE (ligand efficiency) [1]: 0.17
- IC50, PfPPase-VP1 activity [2]: did not show inhibition at the tested concentrations
